The nature of data set [1]: Mouse plasma stability (Compound 1). The settings on record: 37° C. Format: in vitro ADME.
The nature of data set [2]: CD-1 mouse plasma stability. It is filed as in vitro ADME. The conditions noted are these: 3 μM, 37° C. The method, then: Method: Assay was carried out in 96-well microtiter plates. Compounds were incubated in replicates (n=2) for 0, 5, 15, 30, and 45 minutes at 37° C. Reaction mixtures (20 μL) contained a final concentration of 3 μM test compound in fresh CD-1 mouse plasma. Eucatropine included as positive control to verify assay performance. Linear regression of semi-log plot of % remaining of compounds versus time used to determine the half-life t1/2 values.

Data set [3] can be described thus: Human plasma stability. Format: in vitro ADME. The conditions noted are these: 3 μM, 37° C. The protocol: Method: Assay was carried out in 96-well microtiter plates. Compounds were incubated in replicates (n=2) for 0, 5, 15, 30, and 45 minutes at 37° C. Reaction mixtures (20 μL) contained a final concentration of 3 μM test compound in human plasma. Eucatropine included as positive control to verify assay performance. Linear regression of semi-log plot of % remaining of compounds versus time used to determine the half-life t½ values.

A short description of data set [4]: Rat plasma stability. It is filed as in vitro ADME. The conditions noted are these: 3 μM, 37° C. The protocol:
Method: Assay was carried out in 96-well microtiter plates. Compounds were incubated in replicates (n=2) for 0, 5, 15, 30, and 45 minutes at 37° C. Reaction mixtures (20 μL) contained a final concentration of 3 μM test compound in fresh Sprague Dawley rat plasma. Eucatropine is a positive control to verify assay performance. Linear regression of semi-log plot of % remaining of compounds versus time used to determine the half-life t1/2 values.

A short description of data set [5]: Plasma PK of Int 3-3 in CD-1 mice (study c). Format: in vivo. The conditions noted are these: after iv Int 3-3 8.8 mg/kg. The method, then: Objectives: to determine the plasma pharmacokinetics of Int 3-3 following a single intravenous infusion of Int 3-3 at 8.83 mg/kg in CD-1 mice
PK measurements: compare PK parameters C0, CL, Vdss, Cmax, tmax, t1/2, AUC(0-t), AUC(0-inf), MRT(0-t), MRT(0-inf) for Int 3-3.

Data set [6] in a line: Metabolic stability in liver hepatocytes, mouse. It is filed as in vitro ADME.
A short description of data set [7]: Metabolic stability in liver hepatocytes, monkey. Format: in vitro ADME.
Data set [8] can be described thus: Metabolic stability in liver hepatocytes, dog. Format: in vitro ADME.
The nature of data set [9]: Metabolic stability in liver hepatocytes, human. Format: in vitro ADME.
A short description of data set [10]: Human liver S9 stability. Format: in vitro ADME.
A short description of data set [11]: Mouse liver S9 stability. It is filed as in vitro ADME.
Data set [12] can be described thus: Rat liver S9 stability. It is filed as in vitro ADME.
The nature of data set [13]: Dog liver S9 stability. It is filed as in vitro ADME.
Data set [14] can be described thus: Monkey liver S9 stability. It is filed as in vitro ADME.
Data set [15] in a line: Comparative plasma PK of Compound 1 versus Int 1-4 in male CD-1 mice (study b). Format: in vivo. The method, then:
Objectives: to compare the plasma pharmacokinetics and stability of Compound 1 with its non-phosphorylated SMDC analog (Int 1-4) and in plasma following a single intravenous infusion administration of Compound 1 at 11.6 mg/kg and 23.2 mg/kg with Int 1-4 (formulation F1 & F2) at 10.0 mg/kg in male CD-1 mice
PK measurements: compare PK parameters C0, CL, Vdss, Cmax, tmax, t1/2, AUC(0-t), AUC(0-inf), MRT(0-t), MRT(0-inf) for Compound 1 and Int 1-4

Where [16] appears, read: negative value indicates compound is stable.

As for `CC1CC(OC(=O)C(O)c2ccccc2)CC(C)(C)N1C` (centres unmarked) [Eucatropine, reference compound], the “Slope Mean ± SE” value in [1] (3 μM) was −0.03084 ± 0.003016; in data set [2] (in min-1 (unit assumed)), −0.03084 ± 0.003016; in data set [3] (semi-log plot of % remaining versus time, in min-1 (unit assumed)), −0.04591 ± 0.003277; in [4] (Sprague Dawley rat plasma), −0.007881 ± 0.00112. In addition, the half-life at 3 μM came to 22.5 ± 2.2 min in data set [1] (CD-1, 3 μM, read-out: t1/2 Mean ± SE); 22.5 ± 2.2 min in data set [2] (fresh CD-1 mouse plasma, read-out: t1/2 Mean ± SE); 15.1 ± 1.1 min in data set [3] (read-out: t1/2 Mean ± SE); 87.9 ± 12.5 min in data set [4] (fresh Sprague Dawley rat plasma, read-out: t1/2 Mean ± SE).

A word on the AUC(0-t): it is the area under the concentration-time curve up to a stated or last time point. Broadly, the clearance is the rate of elimination divided by the concentration. For `[2H]C([2H])([2H])Oc1cc(OC([2H])([2H])[2H])c2oc(COC(=O)Nc3ccn([C@@H]4O[C@H](CO)[C@@H](O)C4(F)F)c(=O)n3)cc2c1` [Int 3-3], the AUC0-inf/AUC0-last in [5] was determined as 101%. In addition, in [5] (mouse), the AUC(0-t) came out at 3480 ng·h/mL, the C0 amounted to 45900 ng/mL, the clearance came out at 43.3 mL/min/kg and the half-life was 74.4 min. In addition, in data set [5] (mouse, read-out: AUC0-inf), the AUC(0-inf) amounted to 3510 ng·h/mL. In addition, in [5] (mouse, read-out: MRT0-inf), the MRT inf worked out at 46 min. Also, the MRT last in [5] (mouse, read-out: MRT0-last) is 42.2 min. Besides, in data set [5] (mouse, read-out: Vdss), the Vd is 1.83 L/kg.

As to `C=CCN1CC[C@]23c4c5ccc(O)c4O[C@H]2C(=O)CC[C@@]3(O)[C@H]1C5` [Naxalone], the “Slope Mean ± SE” value in [6] is −0.01828 ± 0.000731; in data set [7], −0.02948 ± 0.001002; in [8], −0.01302 ± 0.001119; in [9] it was −0.01335 ± 0.000878. For the same compound, the “t1/2 mean ± SE” value came out at 37.9 ± 1.5 min in [6], 23.5 ± 0.8 min in data set [7] (setting [16]), 53.2 ± 4.6 min in [8] (setting [16]) and 51.9 ± 3.4 min in data set [9].

In the case of `COc1cc2ccc(=O)oc2cc1O` [Scopoletin, reference compound], the half-life was 8.2 ± 0.2 min in data set [10] (human liver S9, read-out: t1/2 Mean ± SE); 11.3 ± 1.2 min in data set [11] (mouse liver S9, read-out: t1/2 Mean ± SE); 22.1 ± 1.4 min in [12] (rat liver S9, read-out: t1/2 Mean ± SE); 17.8 ± 0.8 min in data set [13] (dog liver S9, read-out: t1/2 Mean ± SE); 5 ± 0.5 min in data set [14] (monkey liver S9, read-out: t1/2 Mean ± SE). Further, the microsomal CLint in data set [10] (human, liver S9, human liver S9, read-out: CLint Mean ± SE) was found to be 33.8 ± 0.92 µL/min/mg; in data set [11] (mouse, liver S9, mouse liver S9, read-out: CLint Mean ± SE), 24.5 ± 2.61 µL/min/mg; in data set [12] (rat, liver S9, rat liver S9, read-out: CLint Mean ± SE), 12.5 ± 0.792 µL/min/mg; in data set [13] (dog, liver S9, dog liver S9, read-out: CLint Mean ± SE), 15.6 ± 0.666 µL/min/mg; in data set [14] (monkey, liver S9, monkey liver S9, read-out: CLint Mean ± SE), 55.6 ± 5.62 µL/min/mg. Besides, the “Slope Mean ± SE” value is reported as −0.06127 ± 0.006525 in [11] (mouse liver S9), −0.03134 ± 0.00198 in [12] (rat liver S9), −0.03892 ± 0.001665 in [13] (dog liver S9) and −0.1391 ± 0.01406 in [14] (monkey liver S9).

One may read the Cmax as the maximum level reached in the sampled fluid or tissue. As usually defined, the Tmax is the time from dosing to the highest level. Gemcitabine monophosphate: in [15] (after iv Compound 1 11.6 mg/kg), the AUC0-last was 0.840 ng·h/mL, the Cmax was 33.6 ng/mL, the MRT0-last stood at 1.79 min and the Tmax came out at 1.5 min. Further, in data set [15] (after iv Compound 1 23.2 mg/kg), the AUC0-last was 1.18 ng·h/mL, the AUC(0-inf) stood at 1.44 ng·h/mL, the Cmax was 30.4 ng/mL and the MRT0-inf is 3.3 min. In [15] (after iv Compound 1 23.2 mg/kg), the MRT0-last was 2.38 min, the time to peak (Tmax) was determined as 1.5 min and the t1/2 is 1.64 min.

The values above are taken from US11760773B2, “Small molecule drug conjugates of gemcitabine monophosphate” (MaveriX Oncology, Inc., priority 2018, dated 2023).
